Assay results: US11691962B2 (eXIthera Pharmaceuticals, Inc., priority 2018, dated 2023)
Like-named read-outs stand apart in the source and are kept apart here.

Experiments:
Thrombin = Thrombin (Homo sapiens (Human), UniProt P00734); experiment: Dose response assay for protease inhibitors: thrombin; type: biochemical; settings: selectivity, thrombin over Factor XIa
In short: (§1)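 Glp-Pro-Arg-AMC substrate (thrombin, trypsin) or Pro-Phe-Arg-AMC/Boc-Leu-Gly-Arg-AMC (Factor Xa), diluted to 100 μM, in 20 mM Hepes pH 7.4, 150 mM NaCl, 0.02% Tween 20; enzyme diluted to 0.5 nM before addition. Two-fold serial compound dilutions; kinetic reads at 30° C. Data yield IC50 and Kon.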

Trypsin = experiment: Dose response assay for protease inhibitors: trypsin; type: biochemical; settings: selectivity, trypsin over Factor XIa
In short: as §1

Factor Xa = Factor Xa (Homo sapiens (Human), UniProt P00742); experiment: Dose response assay for protease inhibitors: Factor Xa; type: biochemical; settings: selectivity, Factor Xa over Factor XIa
Sequence of Factor Xa (P00742 235-488): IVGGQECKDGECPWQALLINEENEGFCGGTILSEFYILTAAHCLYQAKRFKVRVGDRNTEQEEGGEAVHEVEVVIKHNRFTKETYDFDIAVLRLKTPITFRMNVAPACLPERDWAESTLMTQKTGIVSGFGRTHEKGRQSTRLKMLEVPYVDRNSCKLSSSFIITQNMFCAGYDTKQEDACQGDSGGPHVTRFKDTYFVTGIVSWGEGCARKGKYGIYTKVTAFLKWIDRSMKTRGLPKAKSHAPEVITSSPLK
Sequence of Factor Xa (P00742 41-179 partner): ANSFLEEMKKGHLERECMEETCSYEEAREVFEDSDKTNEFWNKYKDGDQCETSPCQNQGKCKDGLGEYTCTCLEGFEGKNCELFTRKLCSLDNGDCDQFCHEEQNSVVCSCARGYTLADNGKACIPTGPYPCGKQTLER
In short: as §1

[1] = Aqueous solubility in PBS by HPLC-UV/VIS; type: physicochemical; settings: PBS pH 7.4, 2% DMSO, 24 h at room temperature; for solubility at 24 h: phosphate buffered saline, aqueous buffer, kinetic from dmso stock
Protocol: The following procedure was used to determine the aqueous solubility of a test compound in phosphate buffered saline (PBS-NaCl 137 mM, KCl 2.7 mM, Na2HPO4 8.1 mM, KH2PO4 1.5 mM, pH 7.4) in 96-well plate format by HPLC-UV/VIS analysis. The test compound was prepared at 200 μM in PBS from a 10 mM DMSO stock solution. The final DMSO concentration was 2%. The PBS buffer samples were mixed thoroughly followed by incubation at room temperature for 24 h. At the end of the incubation, the PBS buffer samples were centrifuged and supernatants analyzed by HPLC. The aqueous solubility (μM) of the test compound in PBS was determined by comparing the peak area of the principal peak in the calibration standard (200 μM) with the peak area of the corresponding peak in each of the PBS samples. The range of the assay was approximately 0.5 μM to 200 μM. The reference compounds used in each assay were metoprolol, rifampicin, ketoconazole, phenytoin, haloperidol, simvastatin, diethylstilbestrol, and tamoxifen ranking from fully soluble (200 μM) to poorly soluble (<1 μM).

[2] = Plasma protein binding by equilibrium dialysis; type: in vitro ADME; settings: pH 7.4, pooled human plasma, 4 hours at 37° C., read-out: PPB (%)
Protocol: The following procedure was used to determine the plasma protein binding of a test compound in pooled plasma from human (mixed gender) via equilibrium dialysis in a 96-well plate format. The dialysate compartment was loaded with phosphate-buffered saline (pH 7.4) and the sample side was loaded with plasma spiked with the test compound at a concentration of 10 μM. After loading, samples were covered and incubated for 4 hours at 37° C. After incubation, each compartment was sampled, diluted with acetonitrile/buffer and centrifuged. The supernatants were analyzed by HPLC-MS/MS. The analyte peak areas obtained from HPLC-MS/MS analysis of each sample were used to calculate protein binding according to the following equation (Equation 4):
[formula] where: AREAp=Peak area of analyte in protein matrix; AREAb=Peak area of analyte in buffer.
The amount measured in the plasma compartment included both free and bound drug, while that on the buffer side represented free drug only; the differences were used to calculate the percentage plasma protein bound. Three reference compounds were tested in each assay: acebutolol, quinidine and warfarin.

Row | Ratio: Thrombin/FXIa (Thrombin) | Ratio: FXa/FXIa (Factor Xa) | solubility at 24 h [1] [µM] | fraction unbound at 4 h, 10 μM ([2]; both sexes) | fraction unbound at 4 h, 10 μM ([2]; both) | Aqueous Solubility (uM, in PBS) [1] | Molecule | Ratio: Trypsin/FXIa (Trypsin)
1 | H (“H” indicates 101-1000) | I (“I” indicates > 500) | > 100 | 0.1 to 0.5 |  |  | CC[C@@H](NC(=O)N1C(=O)[C@H](Cc2ccnc(N)c2)[C@H]1C(=O)N(C)c1ccnn1C)c1ccccc1 [Compound 1-92, (2S,3R)-3-((2-aminopyridin-4-yl)methyl)-N2-(1-methyl 1H-pyrazol-5-yl)-N1-((R)-1-phenylpropyl)-N2-methyl-4-oxoazetidine-1,2-dicarboxamide] | G (“G” indicates 1-100)
2 | H (“H” indicates 101-1000) | I (“I” indicates > 500) | > 100 | 0.1 to 0.5 |  |  | CC[C@@H](NC(=O)N1C(=O)[C@H](Cc2ccnc(N)c2)[C@H]1C(=O)N(C)c1nccn1C)c1cccc(C)c1 [Compound 1-80, (2S,3R)-3-((2-aminopyridin-4-yl)methyl)-N2-(1-methyl-1H-imidazol-2-yl)-N1-((R)-1-(3-methylphenyl)propyl)-N2-methyl-4-oxoazetidine-1,2-dicarboxamide] | G (“G” indicates 1-100)
3 | G (“G” indicates 1-100) | H (“H” indicates 101-1000) | > 100 | 0.1 to 0.5 |  |  | CC[C@@H](NC(=O)N1C(=O)[C@H](Cc2ccnc(N)c2)[C@H]1C(=O)N(C)c1cnn(C)c1)c1ccccc1 [Compound 1-88, (2S,3R)-3-((2-aminopyridin-4-yl)methyl)-N2-(1-methyl-1H-pyrazol-4-yl)-N1-((R)-1-phenylpropyl)-N2-methyl-4-oxoazetidine-1,2-dicarboxamide] | G (“G” indicates 1-100)
4 | H (“H” indicates 101-1000) | I (“I” indicates > 500) | > 100 |  | 0.05 to 0.09 |  | CC[C@@H](NC(=O)N1C(=O)[C@H](Cc2ccnc(N)c2)[C@H]1C(=O)N(C)c1nccn1C)c1ccccc1Cl [Compound 1-83] | G (“G” indicates 1-100)
5 | H (“H” indicates 101-1000) | I (“I” indicates > 500) | > 100 | 0.1 to 0.5 |  |  | CC[C@@H](NC(=O)N1C(=O)[C@H](Cc2cc(C)nc(N)c2)[C@H]1C(=O)N(C)c1ccn(C)n1)c1cccc(Cl)c1 [Compound 1-89, (2S,3R)-3-((2-amino-6-methylpyridin-4-yl)methyl)-N2-(1-methyl-1H-pyrazol-3-yl)-N1-((R)-1-(3-chlorophenyl)propyl)-N2-methyl-4-oxoazetidine-1,2-dicarboxamide] | G (“G” indicates 1-100)
6 | H (“H” indicates 101-1000) | I (“I” indicates > 500) |  |  |  | W (“W” indicates > 100 μM) | (2S,3R)-3-((2-amino-6-methylpyridin-4-yl)methyl)-N2-(1-methyl-1H-imidazol-2-yl)-N1-((R)-1-(3-fluorophenyl)propyl)-N2-methyl-4-oxoazetidine-1,2-dicarboxamide [Compound 1-120] | G (“G” indicates 1-100)

Further lines, the molecule ahead of its results:

Row | Molecule | Ratio: Thrombin/FXIa (Thrombin) | Ratio: FXa/FXIa (Factor Xa) | solubility at 24 h [1] [µM] | fraction unbound at 4 h, 10 μM ([2]; both sexes) | fraction unbound at 4 h, 10 μM ([2]; both) | Aqueous Solubility (uM, in PBS) [1] | Ratio: Trypsin/FXIa (Trypsin)
7 | CC[C@@H](NC(=O)N1C(=O)[C@H](Cc2cc(C)nc(NC)c2)[C@H]1C(=O)N(C)c1ccnn1C)C1CCCCC1 [Compound 1-62, (2S,3R)-3-((2-methylamino-6-methylpyridin-4-yl)methyl)-N2-(1-methyl-1H-pyrazol-5-yl)-N1-((R)-1-cyclohexylpropyl)-N2-methyl-4-oxoazetidine-1,2-dicarboxamide] | I (“I” indicates > 500) | I (“I” indicates > 500) | > 100 | 0.1 to 0.5 |  |  | G (“G” indicates 1-100)
8 | CC[C@@H](NC(=O)N1C(=O)[C@H](Cc2ccnc(N)c2)[C@H]1C(=O)N(C)c1nccn1C)C1CCCCC1 [Compound 1-55, (2S,3R)-3-((2-aminopyridin-4-yl)methyl)-N2-(1-methyl-1H-imidazol-2-yl)-N1-((R)-1-cyclohexylpropyl)-N2-methyl-4-oxoazetidine-1,2-dicarboxamide] | H (“H” indicates 101-1000) | I (“I” indicates > 500) | > 100 | 0.1 to 0.5 |  |  | G (“G” indicates 1-100)
9 | CC[C@@H](NC(=O)N1C(=O)[C@H](Cc2cc(C)nc(N)c2)[C@H]1C(=O)N(C)c1nccn1C)c1ccccc1 [Compound 1-51, (2S,3R)-3-((2-amino-6-methylpyridin-4-yl)methyl)-N2-(1-methyl-1H-imidazol-2-yl)-N1-((R)-1-phenylpropyl)-N2-methyl-4-oxoazetidine-1,2-dicarboxamide] | H (“H” indicates 101-1000) | I (“I” indicates > 500) | > 100 | 0.1 to 0.5 |  |  | G (“G” indicates 1-100)
10 | CC[C@@H](NC(=O)N1C(=O)[C@H](Cc2cc(C)nc(N)c2)[C@H]1C(=O)N(C)c1nccn1C)c1cccc(Cl)c1 [Compound 1-43, (2S,3R)-3-((2-amino-6-methylpyridin-4-yl)methyl)-N2-(1-methyl-1H-imidazol-2-yl)-N1-((R)-1-(3-chlorophenyl)propyl)-N2-methyl-4-oxoazetidine-1,2-dicarboxamide] | H (“H” indicates 101-1000) | I (“I” indicates > 500) | > 100 | 0.1 to 0.5 |  |  | G (“G” indicates 1-100)
11 | CC[C@@H](NC(=O)N1C(=O)[C@H](Cc2ccnc(N)c2)[C@H]1C(=O)N(C)c1cnn(C)c1)c1ccc(C)nc1 [Compound 1-18, (2S,3R)-3-((2-aminopyridin-4-yl)methyl)-N2-(1-methyl-1H-pyrazol-4-yl)-N1-((R)-1-(6-methylpyridin-3-yl)propyl)-N2-methyl-4-oxoazetidine-1,2-dicarboxamide] | G (“G” indicates 1-100) | H (“H” indicates 101-1000) | > 100 | < 0.5 |  |  | G (“G” indicates 1-100)
12 | CC[C@@H](NC(=O)N1C(=O)[C@H](Cc2ccnc(N)c2)[C@H]1C(=O)N(C)c1ccnn1C)c1cccc(Cl)c1 [Compound 1-4, (2S,3R)-3-((2-aminopyridin-4-yl)methyl)-N2-(1-methyl-1H-pyrazol-5-yl)-N1-((R)-1-(3-chlorophenyl)propyl)-N2-methyl-4-oxoazetidine-1,2-dicarboxamide] | I (“I” indicates > 500) | I (“I” indicates > 500) | > 100 | 0.1 to 0.5 |  |  | G (“G” indicates 1-100)
13 | CC[C@@H](NC(=O)N1C(=O)[C@H](Cc2ccnc(N)c2)[C@H]1C(=O)N(C)c1cscn1)c1ccccc1 [Compound 1-8, (2S,3R)-3-((2-aminopyridin-4-yl)methyl)-N2-(4-thiazolyl)-N1-((R)-1-phenylpropyl)-N2-methyl-4-oxoazetidine-1,2-dicarboxamide] | G (“G” indicates 1-100) | H (“H” indicates 101-1000) | > 100 | 0.1 to 0.5 |  |  | G (“G” indicates 1-100)
